Data taken from patent US10766869B2, “Triazoles for the treatment of demyelinating dieases” (Vertex Pharmaceuticals Incorporated, priority 2015, dated 2020).

System: primary rat mixed cortical cells
Assay: In vitro myelination assay (MBP positive myelin strands, fold myelin pixels above background)
Assay type: cell-based
Details: Rattus norvegicus, read-out: Fold myelin pixels above background relative to baseline of no added compound; for fold induction at 1 µM: 1.0 μM compound; for fold induction at 10 µM: 10.0 μM compound
Outline: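 P1 rat cortical cells (neurons, OPCs, oligodendrocytes, astrocytes, microglia) were cultured 14 days at 37 °C with compound, with half-medium changes containing 1× compound on days 6 and 10. Fixed cells were immunostained for MBP and imaged at 10×. Total MBP myelin pixels per well were expressed as fold above no-compound baseline at 1.0 μM and 10.0 μM.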

| Compound | fold induction at 1 µM | fold induction at 10 µM |
| --- | --- | --- |
| Cc1cc(Nc2ncn(-c3cc(F)cc(F)c3)n2)cc(NC2CCN(C3CCC3)CC2)c1 [Compound 1070, N1-(1-cyclobutyl-4-piperidyl)-N3-[1-(3,5-difluorophenyl)-1,2,4-triazol-3-yl]-5-methyl-benzene-1,3-diamine] | 10 to 100 | ≤ 1 |
| Cc1cc(Nc2ncn(-c3cccc(F)c3)n2)cc(N2CC3(C2)CN(C(C)C)C3)c1 [Compound 1071, 1-(3-fluorophenyl)-N-[3-(2-isopropyl-2,6-diazaspiro[3.3]heptan-6-yl)-5-methyl-phenyl]-1,2,4-triazol-3-amine] | 10 to 100 | ≤ 1 |
| Cc1cc(Nc2ncn(-c3cc(F)cc(F)c3)n2)c(F)c(N2CC3(C2)CN(C(C)C)C3)c1 [Compound 1072, 1-(3,5-difluorophenyl)-N-[2-fluoro-3-(2-isopropyl-2,6-diazaspiro[3.3]heptan-6-yl)-5-methyl-phenyl]-1,2,4-triazol-3-amine] | 1 to 10 | ≤ 1 |
| Cc1cc(Nc2ncn(-c3cc(F)cc(F)c3)n2)cc(N2CCOC(CO)C2)c1 (stereo not shown) [Compound 1073, [4-[3-[[1-(3,5-difluorophenyl)-1,2,4-triazol-3-yl]amino]-5-methyl-phenyl]morpholin-2-yl]methanol] | 10 to 100 | ≤ 1 |
| Cc1cc(Nc2ncn(-c3cc(F)cc(F)c3)n2)cc(N2CCC(OCCN3CCCC3)CC2)c1 [Compound 1074, 1-(3,5-difluorophenyl)-N-[3-methyl-5-[4-(2-pyrrolidin-1-ylethoxy)-1-piperidyl]phenyl]-1,2,4-triazol-3-amine] | 1 to 10 | ≤ 1 |
| COCC(=O)N1CC(C)(Nc2cc(C)cc(Nc3ncn(-c4cc(F)cc(F)c4)n3)c2)C1 [Compound 1075, 1-[3-[3-[[1-(3,5-difluorophenyl)-1,2,4-triazol-3-yl]amino]-5-methyl-anilino]-3-methyl-azetidin-1-yl]-2-methoxy-ethanone] | 1 to 10 | ≤ 1 |
| Cc1cc(Nc2ncn(-c3cc(F)cc(F)c3)n2)cc(N2CC(C)(C#N)C2)c1 [Compound 1076, 1-[3-[[1-(3,5-difluorophenyl)-1,2,4-triazol-3-yl]amino]-5-methyl-phenyl]-3-methyl-azetidine-3-carbonitrile] | 10 to 100 | ≤ 1 |
| Cc1cc(Nc2ncn(-c3cc(F)cc(F)c3)n2)cc(N2CCCC2CN2CCCC2CO)c1 (stereo not shown) [Compound 1077, [1-[[1-[3-[[1-(3,5-difluorophenyl)-1,2,4-triazol-3-yl]amino]-5-methyl-phenyl]pyrrolidin-2-yl]methyl]pyrrolidin-2-yl]methanol] | 1 to 10 | ≤ 1 |
| Cc1cc(Nc2ncn(-c3cc(F)cc(F)c3)n2)cc(N2CCN(CC(O)CN(C)C)CC2)c1 (stereo not shown) [Compound 1078, 1-[4-[3-[[1-(3,5-difluorophenyl)-1,2,4-triazol-3-yl]amino]-5-methyl-phenyl]piperazin-1-yl]-3-(dimethylamino)propan-2-ol] | 1 to 10 | ≤ 1 |
| Cc1cc(Nc2ncn(-c3cc(F)cc(F)c3)n2)cc(N2CC(F)(CO)C2)c1 [Compound 1079, [1-[3-[[1-(3,5-difluorophenyl)-1,2,4-triazol-3-yl]amino]-5-methyl-phenyl]-3-fluoro-azetidin-3-yl]methanol] | 10 to 100 | ≤ 1 |
| [2H]c1nc(Nc2cc(C)cc(N3CCN(C4COC4)CC3)c2)nn1-c1cc(F)cc(F)c1 [Compound 1080, 5-deuterio-1-(3,5-difluorophenyl)-N-[3-methyl-5-[4-(oxetan-3-yl)piperazin-1-yl]phenyl]-1,2,4-triazol-3-amine] | 10 to 100 | 10 to 100 |
| Cc1cc(Nc2ncn(-c3cc(F)cc(F)c3)n2)cc(N2CC3(C2)CN(C(C)C)C3)c1 [Compound 1081, 1-(3,5-difluorophenyl)-N-[3-(2-isopropyl-2,6-diazaspiro[3.3]heptan-6-yl)-5-methyl-phenyl]-1,2,4-triazol-3-amine] | 1 to 10 | 1 to 10 |
| Cc1cc(NCCN2CCOCC2C)cc(Nc2ncn(-c3cc(F)cc(F)c3)n2)c1 (stereo not shown) [Compound 1082, N1-[1-(3,5-difluorophenyl)-1,2,4-triazol-3-yl]-5-methyl-N3-[2-(3-methylmorpholin-4-yl)ethyl]benzene-1,3-diamine] | 10 to 100 | ≤ 1 |
| Cc1cc(Nc2ncn(-c3cc(F)cc(F)c3)n2)cc(N2CCC(C3CCOC3)C2)c1 (stereo not shown) [Compound 1083, 1-(3,5-difluorophenyl)-N-[3-methyl-5-(3-tetrahydrofuran-3-ylpyrrolidin-1-yl)phenyl]-1,2,4-triazol-3-amine] | 1 to 10 | ≤ 1 |
| Cc1cc(NCC2CN(C(=O)OC(C)(C)C)C2)cc(Nc2ncn(-c3cc(F)cc(F)c3)n2)c1 [Compound 1084, tert-butyl 3-[[3-[[1-(3,5-difluorophenyl)-1,2,4-triazol-3-yl]amino]-5-methyl-anilino]methyl]azetidine-1-carboxylate] | 10 to 100 | 1 to 10 |
| Cc1cc(Nc2ncn(-c3ccccc3)n2)c(F)c(N2CCN(C3COC3)CC2)c1 [Compound 1085, N-[2-fluoro-5-methyl-3-[4-(oxetan-3-yl)piperazin-1-yl]phenyl]-1-phenyl-1,2,4-triazol-3-amine] | 10 to 100 | 10 to 100 |
| [2H]C([2H])([2H])C([2H])(N1CCN(c2cc(C)cc(Nc3ncn(-c4ccccc4)n3)c2)CC1)C([2H])([2H])[2H] [Compound 1086, N-[3-methyl-5-[4-[1,2,2,2-tetradeuterio-1-(trideuteriomethyl)ethyl]piperazin-1-yl]phenyl]-1-phenyl-1,2,4-triazol-3-amine] | 10 to 100 | ≤ 1 |
| Cc1cc(Nc2ncn(-c3cc(F)cc(F)c3)n2)cc(N2CCOC(COCC3CC3)C2)c1 (stereo not shown) [Compound 1087, N-[3-[2-(cyclopropylmethoxymethyl)morpholin-4-yl]-5-methyl-phenyl]-1-(3,5-difluorophenyl)-1,2,4-triazol-3-amine] | 1 to 10 | 1 to 10 |
| [2H]C1(N2CCN(c3cc(C)cc(Nc4ncn(-c5cc(F)cc(F)c5)n4)c3)CC2)COC1 [Compound 1110, N-[3-[4-(3-deuteriooxetan-3-yl)piperazin-1-yl]-5-methyl-phenyl]-1-(3,5-difluorophenyl)-1,2,4-triazol-3-amine] | 1000 to 10000 | 1 to 10 |
| [2H]C1([2H])N(C)C([2H])([2H])C([2H])([2H])N(c2cc(C)cc(Nc3ncn(-c4ccccc4)n3)c2)C1([2H])[2H] [Compound 1111, N-[3-methyl-5-(2,2,3,3,5,5,6,6-octadeuterio-4-methyl-piperazin-1-yl)phenyl]-1-phenyl-1,2,4-triazol-3-amine] | 100 to 1000 | ≤ 1 |
